Measured values reported in PubChem BioAssay (NCI).
“And” between values parts separate entries of the source, which are not always exact repeats. Equal values may be shown once.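 Five concentrations, 48 hours, 96-well plates. At the GI50, growth is halved. The concentration for full growth arrest is given as TGI.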

Tests used:
Assay in all cases: DTP human tumour cell line panel, 48 h
BT-549 breast = tested on: BT-549 breast
HCC-2998 colon = tested on: HCC-2998 colon
IGROV1 ovarian = tested on: IGROV1 ovarian
M14 melanoma = tested on: M14 melanoma
MDA-N = tested on: MDA-N
MOLT-4 leukemia = tested on: MOLT-4 leukemia
RXF 393 renal = tested on: RXF 393 renal
SF-268 CNS = tested on: SF-268 CNS
SF-539 CNS = tested on: SF-539 CNS
SNB-75 CNS = tested on: SNB-75 CNS
U251 CNS = tested on: U251 CNS

Structure (SMILES): CC(=O)OC(/C=C/c1ccccc1)P1(=O)N(CC(C)(C)C)[C@@H]2CCCC[C@H]2N1CC(C)(C)C (stereo not given in full)
- TGI (BT-549 breast): 28.5 µM and 25.9 µM
- TGI (HCC-2998 colon): 16.1 µM and 8.6 µM
- TGI (IGROV1 ovarian): 19.6 µM and 19.3 µM
- TGI (M14 melanoma): 17.5 µM and 18.9 µM
- TGI (MDA-N): 23.1 µM and 21 µM
- TGI (MOLT-4 leukemia): 17.1 µM and 14.7 µM
- TGI (RXF 393 renal): 22 µM and 14.5 µM
- TGI (SF-268 CNS): 23.3 µM and 22.7 µM
- TGI (SF-539 CNS): 21.2 µM and 28.6 µM
- GI50 (SNB-75 CNS): 3.91 µM and 0.684 µM
- TGI (SNB-75 CNS): 12.8 µM and 4.17 µM
- TGI (U251 CNS): 22.6 µM and 19.7 µM

Structure (SMILES): COc1ccc2c(CCN)c(C(=O)O)[nH]c2c1
- TGI (BT-549 breast): > 100 µM
- TGI (HCC-2998 colon): > 100 µM
- TGI (IGROV1 ovarian): > 100 µM
- TGI (M14 melanoma): > 100 µM
- TGI (MDA-N): > 100 µM
- TGI (MOLT-4 leukemia): > 100 µM
- TGI (RXF 393 renal): > 100 µM
- TGI (SF-268 CNS): > 100 µM
- TGI (SF-539 CNS): > 100 µM
- TGI (SNB-75 CNS): > 100 µM
- TGI (U251 CNS): > 100 µM

Structure (SMILES): COC(=O)[C@]1(c2cc3ccccc3n2S(=O)(=O)c2ccccc2)CC2CN(C(C)=O)C1CC2=O (stereo not given in full)
- TGI (BT-549 breast): 7.24 µM
- TGI (HCC-2998 colon): 14 µM
- TGI (IGROV1 ovarian): 5.22 µM
- TGI (M14 melanoma): 4.63 µM
- TGI (MDA-N): 9.32 µM
- TGI (MOLT-4 leukemia): 4.85 µM
- TGI (RXF 393 renal): 3.39 µM
- TGI (SF-268 CNS): 5.83 µM
- TGI (SF-539 CNS): 12.7 µM
- TGI (SNB-75 CNS): 12.3 µM
- TGI (U251 CNS): 3.08 µM

Structure (SMILES): CCCCC(=O)NS(=NC(=O)c1ccccc1)C(Cl)(Cl)Cl (stereo not given)
- TGI (BT-549 breast): > 100 µM
- TGI (HCC-2998 colon): > 100 µM
- TGI (IGROV1 ovarian): > 100 µM
- TGI (M14 melanoma): > 100 µM
- TGI (MDA-N): > 100 µM
- TGI (MOLT-4 leukemia): > 100 µM
- TGI (RXF 393 renal): > 100 µM
- TGI (SF-268 CNS): > 100 µM
- TGI (SF-539 CNS): > 100 µM
- TGI (SNB-75 CNS): > 100 µM
- TGI (U251 CNS): > 100 µM

Structure (SMILES): COc1ccc2nc3ccc(OC)cc3c(SCCO)c2c1
- TGI (BT-549 breast): > 100 µM
- TGI (HCC-2998 colon): > 100 µM
- TGI (IGROV1 ovarian): > 51.1 µM
- TGI (M14 melanoma): > 100 µM
- TGI (MDA-N): > 100 µM
- TGI (MOLT-4 leukemia): > 30.3 µM
- TGI (RXF 393 renal): > 100 µM
- TGI (SF-268 CNS): 96.9 µM
- TGI (SF-539 CNS): > 72.4 µM
- TGI (SNB-75 CNS): 81.8 µM
- TGI (U251 CNS): > 100 µM

Structure (SMILES): COC(=O)C1Cc2c(OC)ccc(OC)c2CC(C(=O)OC)C1=O (stereo not given)
- TGI (BT-549 breast): > 100 µM
- TGI (HCC-2998 colon): > 100 µM
- TGI (IGROV1 ovarian): > 100 µM
- TGI (M14 melanoma): > 100 µM
- TGI (MDA-N): > 100 µM
- TGI (MOLT-4 leukemia): > 100 µM
- TGI (RXF 393 renal): > 100 µM
- TGI (SF-268 CNS): > 100 µM
- TGI (SF-539 CNS): > 100 µM
- TGI (SNB-75 CNS): > 100 µM
- TGI (U251 CNS): > 100 µM

Structure (SMILES): O=C1CC2(c3ccccc3)ON=C(c3ccccc3)N2c2ccccc2N1 (stereo not given)
- TGI (BT-549 breast): > 100 µM
- TGI (HCC-2998 colon): > 100 µM
- TGI (IGROV1 ovarian): > 100 µM
- TGI (M14 melanoma): > 100 µM
- TGI (MDA-N): > 100 µM
- TGI (MOLT-4 leukemia): > 100 µM
- TGI (RXF 393 renal): > 100 µM
- TGI (SF-268 CNS): > 100 µM
- TGI (SF-539 CNS): > 100 µM
- TGI (SNB-75 CNS): > 100 µM
- TGI (U251 CNS): > 100 µM

Structure (SMILES): CCOC(=O)C1=CNC(C(=O)OCC)C1c1cccn1-c1ccc(Cl)cc1[N+](=O)[O-] (stereo not given)
- TGI (BT-549 breast): 61.2 µM
- TGI (HCC-2998 colon): 51.9 µM
- TGI (IGROV1 ovarian): 29.9 µM
- TGI (M14 melanoma): 44.9 µM
- TGI (MDA-N): 54.8 µM
- TGI (MOLT-4 leukemia): 59.5 µM
- TGI (RXF 393 renal): 36.7 µM
- TGI (SF-268 CNS): 55.5 µM
- TGI (SF-539 CNS): 30.8 µM
- TGI (SNB-75 CNS): 51.4 µM
- TGI (U251 CNS): 41.1 µM

Structure (SMILES): CN(C)CCNC(=O)c1cccc2c(NCCN(C)C)c3ccccc3nc12
- TGI (BT-549 breast): 18.4 µM
- TGI (HCC-2998 colon): 3.73 µM
- TGI (IGROV1 ovarian): 10.8 µM
- TGI (M14 melanoma): 18.6 µM
- TGI (MDA-N): 8.18 µM
- TGI (MOLT-4 leukemia): 6.29 µM
- TGI (RXF 393 renal): 14.2 µM
- TGI (SF-268 CNS): 11.2 µM
- TGI (SF-539 CNS): 11.3 µM
- TGI (SNB-75 CNS): 11.1 µM
- TGI (U251 CNS): 8.72 µM
